The values below come from ChEMBL document CHEMBL5154808, “Novel β-Hairpin Antimicrobial Peptides Containing the β-Turn Sequence of -RRRF- Having High Cell Selectivity and Low Incidence of Drug Resistance” (J Med Chem, 2022).

The source made the active and inactive calls.

Series [1] relates to Escherichia coli. The series can be described thus: Antimicrobial activity against Escherichia coli ATCC 25922 assessed as reduction in bacterial growth incubated for 18 hrs in presence of 4 uM FeCl3 by CLSI protocol based broth microdilution method (reference value: 8 uM). The series is classed as functional. (Dilution methods test growth across graded concentrations, often in twofold steps.)

Series [2] concerns Escherichia coli. The series is described as follows: Antimicrobial activity against Escherichia coli ATCC 25922 assessed as reduction in bacterial growth incubated for 18 hrs in presence of 150 mM NaCl by CLSI protocol based broth microdilution method (reference value: 8 uM). The class given is functional.
In series [3] the test system is Escherichia coli. The series can be described thus: Antimicrobial activity against Escherichia coli ATCC 25922 assessed as reduction of bacterial growth at 2 times MIC incubated for 18 hrs in presence of trypsin by CLSI protocol based broth microdilution method. The series is classed as functional, organism-based.
For series [4], the system named is Escherichia coli. The series is described as follows: Antimicrobial activity against Escherichia coli ATCC 25922 assessed as fold change in MIC incubated for 18 hrs in presence of 150 mM NaCl by CLSI protocol based broth microdilution method relative to control. The class given is functional.
A short description of series [5]: Acute toxicity in Kunming mouse assessed as swelling in liver at 62 mg/kg, ip by H and E staining based analysis. The series is classed as organism-based. Conditions: in vivo.
Series [6] relates to Staphylococcus aureus. The series can be described thus: Antimicrobial activity against Staphylococcus aureus ATCC 25923 assessed as fold change in MIC incubated for 18 hrs in presence of 10% serum by CLSI protocol based broth microdilution method relative to control. The series is classed as functional.
Series [7] can be described thus: Acute toxicity in ip dosed Kunming mouse assessed as lethal dose. Conditions: in vivo. The class given is organism-based.
For series [8], the system named is Staphylococcus aureus. The series can be described thus: Antimicrobial activity against Staphylococcus aureus ATCC 25923 assessed as reduction in bacterial growth incubated for 18 hrs in presence of 4.5 mM KCl by CLSI protocol based broth microdilution method (reference value: 8 uM). The class given is functional.
The test system of series [9] is Staphylococcus aureus. The series is described as follows: Antimicrobial activity against Staphylococcus aureus ATCC 25923 assessed as reduction in bacterial growth incubated for 18 hrs in presence of 10% serum by CLSI protocol based broth microdilution method (reference value: 8 uM). The series is classed as functional.
For series [10], the system named is Staphylococcus aureus. The series can be described thus: Antimicrobial activity against Staphylococcus aureus ATCC 25923 assessed as reduction of bacterial growth at 2 times MIC incubated for 18 hrs in presence of chymotrypsin by CLSI protocol based broth microdilution method. The series is classed as functional, organism-based.
The test system of series [11] is Cell membrane. The series can be described thus: Induction of cytoplasmic membrane depolarization in […] assessed as increase in fluorescence intensity at 1 to 4 times MIC measured after 1 min by DiSC3-5 dye based fluorescence method. The class given is subcellular.
Series [12] has as its system Cell membrane. The series can be described thus: Induction of inner membrane permeabilization in Escherichia coli ML-35 ATCC 43587 at 1 to 4 times MIC by ONPG based assay.
The subject of series [13] is Escherichia coli. The series is described as follows: Antimicrobial activity against Escherichia coli ATCC 25922 assessed as reduction in bacterial growth incubated for 18 hrs in presence of 10% serum by CLSI protocol based broth microdilution method (reference value: 8 uM). The series is classed as functional.
Series [14] relates to Staphylococcus aureus. The series is described as follows: Antimicrobial activity against Staphylococcus aureus ATCC 25923 assessed as reduction of bacterial growth at 2 times MIC incubated for 18 hrs in presence of trypsin by CLSI protocol based broth microdilution method. The class given is functional, organism-based.
Series [15] concerns Escherichia coli. The series is described as follows: Synergistic antibacterial activity against kanamycin-resisitant Escherichia coli ATCC 25922 assessed as fractional inhibitory concentration index incubated for 18 hrs in presence of kanamycin by checker board assay. The class given is functional.
Series [16] can be described thus: Stability in mouse serum assessed as drug degradation by measuring retention time at 10 mM measured upto 360 mins by RP-HPLC analysis. The class given is ADME, cell-free. Conditions: 6 h, 10000 µM.
Series [17] concerns Staphylococcus aureus. The series is described as follows: Synergistic antibacterial activity against kanamycin-resisitant Staphylococcus aureus ATCC 25923 assessed as fractional inhibitory concentration index incubated for 18 hrs in presence of kanamycin by checker board assay. The class given is functional.
Series [18] concerns Escherichia coli. The series is described as follows: Antimicrobial activity against Escherichia coli ATCC 25922 assessed as reduction in bacterial growth incubated for 18 hrs in presence of 4.5 mM KCl by CLSI protocol based broth microdilution method (reference value: 8 uM). The class given is functional.
A short description of series [19]: Acute toxicity in Kunming mouse assessed as hepatocyte hyperemia in liver at 62 mg/kg, ip by H and E staining based analysis. The series is classed as organism-based.
For series [20], the system named is Staphylococcus aureus. The series can be described thus: Antimicrobial activity against Staphylococcus aureus ATCC 25923 assessed as reduction in bacterial growth incubated for 18 hrs in presence of 150 mM NaCl by CLSI protocol based broth microdilution method (reference value: 8 uM). The series is classed as functional.
Series [21] concerns Staphylococcus aureus. The series is described as follows: Synergistic antibacterial activity against Staphylococcus aureus ATCC 25923 assessed as fractional inhibitory concentration index incubated for 18 hrs in presence of kanamycin by checker board assay. The class given is functional.
For series [22], the system named is Escherichia coli. The series is described as follows: Synergistic antibacterial activity against Escherichia coli ATCC 25922 assessed as fractional inhibitory concentration index incubated for 18 hrs in presence of kanamycin by checker board assay. The class given is functional.
Series [23] concerns Cell membrane. The series is described as follows: Induction of cytoplasmic membrane depolarization in Staphylococcus aureus ATCC 25923 assessed as increase in fluorescence intensity at 1 to 4 times MIC measured after 1 min by DiSC3-5 dye based fluorescence method. The series is classed as subcellular. The following applies: DDE = dose-dependent effect.
Series [24] relates to Escherichia coli. The series is described as follows: Synergistic antibacterial activity against Escherichia coli ATCC 25922 assessed as fractional inhibitory concentration index incubated for 18 hrs in presence of polymyxin B by checker board assay. The series is classed as functional.
Series [25] can be described thus: Stability in mouse serum assessed as half life at 10 mM measured upto 360 mins by RP-HPLC analysis. The class given is ADME, cell-free.
The test system of another series is Enterococcus faecalis. The series is described as follows: Antimicrobial activity against Enterococcus faecalis ATCC 29212 assessed as reduction of bacterial growth incubated for 18 hrs by CLSI protocol based broth microdilution method. The class given is functional.
Series [26] deals with Staphylococcus aureus. The series is described as follows: Antimicrobial activity against Staphylococcus aureus ATCC 25923 assessed as reduction in bacterial growth incubated for 18 hrs in presence of 1 mM MgCl2 by CLSI protocol based broth microdilution method (reference value: 4 uM). The series is classed as functional.
Series [27] has as its system Staphylococcus aureus. The series is described as follows: Synergistic antibacterial activity against polymyxin B-resistant Staphylococcus aureus ATCC 25923 assessed as fractional inhibitory concentration index incubated for 18 hrs in presence of polymyxin B by checker board assay. The class given is functional.
Series [28] in a line: Acute toxicity in Kunming mouse assessed as congestion in lungs at 77 mg/kg, ip by H and E staining based analysis. The class given is organism-based. The following applies: in vivo.
The test system of series [29] is Staphylococcus aureus. The series can be described thus: Synergistic antibacterial activity against meropenem-resistant Staphylococcus aureus ATCC 25923 assessed as fractional inhibitory concentration index incubated for 18 hrs in presence of meropenem by checker board assay. The series is classed as functional.
Series [30] concerns Staphylococcus aureus. The series is described as follows: Antimicrobial activity against Staphylococcus aureus ATCC 25923 assessed as reduction in bacterial growth incubated for 18 hrs in presence of 10% serum by CLSI protocol based broth microdilution method (reference value: 4 uM). The series is classed as functional.
The test system of series [31] is Staphylococcus aureus. The series can be described thus: Antimicrobial activity against Staphylococcus aureus ATCC 25923 assessed as reduction in bacterial growth incubated for 18 hrs in presence of 4 uM FeCl3 by CLSI protocol based broth microdilution method (reference value: 4 uM). The class given is functional.
Series [32] deals with Escherichia coli. The series can be described thus: Antimicrobial activity against Escherichia coli ATCC 25922 assessed as reduction in bacterial growth incubated for 18 hrs in presence of 150 mM NaCl by CLSI protocol based broth microdilution method (reference value: 4 uM). The class given is functional.
Series [33] concerns Escherichia coli. The series can be described thus: Antimicrobial activity against Escherichia coli ATCC 25922 assessed as reduction in bacterial growth incubated for 18 hrs in presence of 1 mM MgCl2 by CLSI protocol based broth microdilution method (reference value: 4 uM). The series is classed as functional.

For orientation: MIC means the least concentration at which growth counts as inhibited. By LD50 is commonly meant the dose at which mortality reaches 50%. As usually defined, the half-life is the time needed for the level to fall by half in the phase considered. Regarding H-KWKWKRRRFKWKWK-NH2, the MIC in the series on Escherichia coli [1] came to 8 µM; in the series with Escherichia coli [2], 8 µM; in the series with Staphylococcus aureus [8], 8 µM; in the series with Staphylococcus aureus [9], 16 µM; in the series on Escherichia coli [13], 8 µM; with Escherichia coli [18] it was 8 µM. The MIC in the series with Staphylococcus aureus [20] and with Enterococcus faecalis was 16 µM in each case. The result in the series on Escherichia coli [3], in the series with Staphylococcus aureus [10], in the series with Cell membrane [11], in the series on Cell membrane [12] and with Staphylococcus aureus [14] was Active. Further, the entries for the “fold change (FC)” value in the series on Escherichia coli [4] and in the series on Staphylococcus aureus [6] were 1 and 2, respectively. Besides, the Activity entry was “Toxic” in [5], “Toxic” in [19] and “Dde” with Cell membrane [23]. Also, in series [7], the LD50 was 62.2 mg/kg. Further, the “fractional inhibitory concentration index (FICI)” value with Escherichia coli [15] was determined as 0.3125; with Staphylococcus aureus [17], 0.5; with Staphylococcus aureus [21] it was 0.5; with Escherichia coli [22] it was 0.3125; in the series on Escherichia coli [24], 0.375. In addition, in series [16], the Retention_time is on record as 11.505 min. Also, the half-life at 10000 µM in series [25] worked out at 2.68 h.

Regarding H-RIRIRRRRFRIRIR-NH2, the MIC with Staphylococcus aureus [26] is 8 µM; in the series with Staphylococcus aureus [30], 8 µM; with Staphylococcus aureus [31] it was 4 µM; with Escherichia coli [32], 16 µM; with Escherichia coli [33], 4 µM; in the series with Enterococcus faecalis, 8 µM. For the same substance, the “fold change (FC)” value with Escherichia coli [4] turned out to be 4; in the series on Staphylococcus aureus [6], 2. Also, in series [7], the LD50 is 77.1 mg/kg. For the same substance, the “fractional inhibitory concentration index (FICI)” value in the series with Staphylococcus aureus [27] is listed as 0.3125; in the series with Staphylococcus aureus [29], 0.375; with Staphylococcus aureus [17], 0.5625; in the series with Staphylococcus aureus [21], 0.5625; in the series on Escherichia coli [24], 0.5. Besides, the outcome in the series on Staphylococcus aureus [10], in the series with Cell membrane [11] and in the series with Cell membrane [12] was Active. The values for the Activity result (in series [28]; with Cell membrane [23]) were “Toxic” and “Dde”, respectively. Further, in series [16], the Retention_time worked out at 10.623 min. In series [25], the half-life at 10000 µM was determined as 7.7 h.
